Here are results for 23 compounds from patent US9931324B2, “Indolizine derivatives and their use in neurodegenerative diseases” (Merck Patent GmbH, priority 2014, dated 2018).

In assay [1] the target is T1, P2X7 (Homo sapiens, UniProt Q99572).
T1 sequence (Q99572 1-595): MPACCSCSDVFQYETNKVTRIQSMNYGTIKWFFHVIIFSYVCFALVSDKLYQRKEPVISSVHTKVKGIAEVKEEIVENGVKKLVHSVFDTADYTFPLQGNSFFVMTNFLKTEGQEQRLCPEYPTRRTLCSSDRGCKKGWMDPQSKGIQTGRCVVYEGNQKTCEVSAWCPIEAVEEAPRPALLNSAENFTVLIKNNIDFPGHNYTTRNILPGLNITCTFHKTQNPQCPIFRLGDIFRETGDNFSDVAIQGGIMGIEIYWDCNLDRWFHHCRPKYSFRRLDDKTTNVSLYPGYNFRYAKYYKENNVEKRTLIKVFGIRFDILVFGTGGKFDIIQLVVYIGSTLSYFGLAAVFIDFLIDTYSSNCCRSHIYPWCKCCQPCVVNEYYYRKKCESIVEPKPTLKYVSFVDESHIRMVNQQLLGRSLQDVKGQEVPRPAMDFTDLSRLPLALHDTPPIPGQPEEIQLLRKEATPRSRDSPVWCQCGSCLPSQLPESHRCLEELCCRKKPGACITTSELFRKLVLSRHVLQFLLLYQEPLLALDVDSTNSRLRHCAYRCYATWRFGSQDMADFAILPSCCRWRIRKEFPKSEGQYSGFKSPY
The experiment in a line: Pore permeation assay (YO PRO dye uptake, BzATP-induced). As to conditions: HEK293 transfected with human P2X7 receptor, BzATP 10 uM, read-out: hP2X7 IC50. More on the design: expressed in transfected cells; host or cells: HEK293. The format is cell-based. How it is done:
Agonist-induced pore formation was determined by measuring cellular uptake of YO PRO fluorescence dye in HEK293 transfected with human P2X7 receptor. A HEK293 cell over expressing human P2X7 was harvested using HQTase reagent to detach the cells from T75 cm flask. The harvested cells are centrifuged @1200 rpm for 5 min at room temperature. The viability of cells was determined by Trypan blue dye and the cells are plated @10,000 cell/well in 50 ul volume in a 384W BD Poly lysine coated plate and incubated overnight at 37 C. After overnight incubation, the culture medium was replaced with 35 ul/well assay buffer (5 mM KCl, 0.1 mM CaCl2, 5 mM Glucose, 10 mM HEPES buffer pH7.4 containing 125 mM NaCl. The serial dilution of compounds was performed using Bravo liquid handling instrument and the compounds were added using Bravo to the cell assay plate starting at 2.5 uM with three dilutions for 10 points. The positive control inhibitor compound was added to column 23. The plate was shaken slowly on a plate shaker for 10 seconds. The cells were incubated with the compound for 20 minutes at room temperature. After the incubation period, YO PRO dye (1 uM) along with BzATP (10 uM) were added to cells at 10 ul/well. The plate was centrifuged at 1000 rpm for 5 seconds and incubated at room temperature for 30 minutes. The uptake of YO PRO dye into the cells was measured using Envision Fluorescence plate reader instrument (Perkin Elmer).

Assay [2] deals with T1, P2X7. Nature of the assay: IL-1β release assay in THP-1 cells (sandwich ELISA, BzATP-stimulated). It is filed as cell-based. The settings on record: LPS primed, 0.8 mM BzATP, mature IL-1β release, read-out: hTHP-1/IL-ib IC50. Also noted: endogenous in cells; host or cells: THP-1 cells (PMA-differentiated, LPS-primed). How it is done:
IL-1β release assay: The activation of P2X7 by ATP leads to a fast transient activation of cells resulting in influx of Ca^2+ followed by conversion of pro-IL-1β to active IL-1β. The functional activity of P2X7 compounds was measured by the release of mature IL-1β in the culture medium of THP-1 cells, detected by sandwich ELISA. Cells were maintained in complete growth medium (RPMI 1640+10% HI-FCS+2 mM L-glutamine+1× PS). […] THP-1 cells were harvested from the flask in 50 ml by centrifugation for 3 min at 100 g. The cells were resuspended to 2×10^5 cells/ml in medium supplemented with 0.5 μM PMA and incubated. The cells were washed and resuspended to 1.5×10^5 cells/ml in medium complemented with 10 ng/ml LPS, and the cells were primed for 4 h at 37° C., 5% CO2. After addition of 20 μL of prediluted test compounds, blank, standard and control reagents, cells were incubated for a further 20 min at 37° C. and stimulated with 0.8 mM BzATP for 30 minutes. The cells were centrifuged, supernatant was collected and the presence of mature IL-1β was detected using Dual human IL-1b kit following manufacturer's instruction. The tetrahydrobenzodiazepine analogs effectively modulated the activity of P2X7 in the cells as measured by the levels of pro-inflammatory cytokine IL-1β, which is released by the activation of P2X7 receptor.
(ELISA stands for enzyme-linked immunosorbent assay.)

For `COCCc1cc(C(=O)NCC2(O)CCCC(C)(C)C2)c2c(Cl)cccn12` (stereo not shown) [Compound 10, 8-chloro-N-((1-hydroxy-3,3-dimethylcyclohexyl)methyl)-3-(2-methoxyethyl) indolizine-1-carboxamide], the IC50 in assay [1] and in assay [2] was 10 to 100 nM throughout.
Regarding `COCCc1cc(C(=O)NCC2(O)CCC(F)(F)CC2)c2c(Cl)cccn12` [Compound 53, 8-chloro-N-((4,4-difluoro-1-hydroxycyclohexyl)methyl)-3-(2-methoxyethyl)indolizine-1-carboxamide], the IC50 in assay [1] and in assay [2] was 10 to 100 nM in each case.
In the case of `O=C(NCC1(O)CCC(F)(F)CC1)c1cc(C2CCOC2)n2cccc(Cl)c12` (stereo not shown) [Compound 61, 8-chloro-N-((4,4-difluoro-1-hydroxycyclohexyl)methyl)-3-(tetrahydrofuran-3-yl)indolizine-1-carboxamide], the IC50 in assay [1] and in assay [2] was 10 to 100 nM each time.
`COCCc1cc(C(=O)NC[C@@]2(O)CCC[C@@H](C)C2)c2c(Cl)cccn12` [Compound 18]: the IC50 in assay [1] and in assay [2] was 10 to 100 nM throughout.
As for `CCOCCc1cc(C(=O)NCC2(O)CCC(F)(F)CC2)c2c(Cl)cccn12` [Compound 69, 8-Chloro-3-(2-ethoxy-ethyl)-indolizine-1-carboxylic Acid (4,4-difluoro-1-hydroxy-cyclohexylmethyl)-amide], the IC50 in assay [1] and in assay [2] was 101 to 500 nM each time.
For `COCCc1cc(C(=O)NCC2CCCCCC2)c2c(Cl)cccn12` [Compound 1, 8-chloro-N-(cycloheptylmethyl)-3-(2-methoxyethyl)indolizine-1-Carboxamide], the IC50 lay in the range of 10 to 100 nM in assay [1] and 101 to 500 nM in assay [2].
For the compound `COCCc1cc(C(=O)NCC2(O)CCCC(F)(F)C2)c2c(C(F)(F)F)cccn12` (stereo not shown) [Compound 60, 3-(2-Methoxy-ethyl)-8-trifluoro methylindolizine-1-carboxylic Acid (3,3-difluoro-1-hydroxy-cyclohexylmethyl)-amide], the IC50 lay in the range of 101 to 500 nM in assay [1] and 10 to 100 nM in assay [2].
As to `O=C(NCC1CCC(F)(F)CC1)c1cc(C2CCOC2)n2cccc(Cl)c12` (stereo not shown) [Compound 40, 8-chloro-N-((4,4-difluorocyclohexyl)methyl)-3-(tetrahydro-furan-3-yl)indolizine-1-carboxamide], the IC50 in assay [1] and in assay [2] was 10 to 100 nM throughout.
Take `O=C(NCC1(O)CCC(F)(F)CC1)c1cc(C2CCCO2)n2cccc(Cl)c12` (stereo not shown) [Compound 48, 8-Chloro-3-(tetrahydro-furan-2-yl)-indolizine-1-carboxylic Acid (4,4-difluoro-1-hydroxycyclohexyl methyl)-amide]: the IC50 in assay [1] and in assay [2] was 10 to 100 nM throughout.
For the compound `COCCc1cc(C(=O)NC[C@@]2(O)CCC[C@@H](C)C2)c2c(C)cccn12` [Compound 16, 3-(2-Methoxy-ethyl)-8-methyl-indolizine-1-carboxylic Acid ((1R,3R)-1-hydroxy-3-methylcyclohexylmethyl)-amide], the figures for the IC50 in assay [1] and in assay [2] were 10 to 100 nM and 101 to 500 nM, respectively.
With `COCCc1cc(C(=O)NCC2CCC(F)(F)CC2)c2c(Cl)cccn12` [Compound 37, 8-chloro-N-((4,4-difluorocyclohexyl)methyl)-3-(2-methoxyethyl) indolizine-1-carboxamide], the IC50 in assay [1] and in assay [2] was 10 to 100 nM throughout.
Turning to `O=C(NCC1CCCC(F)(F)C1)c1cc(C2CCOC2)n2cccc(Cl)c12` (stereo not shown) [Compound 39, 8-Chloro-3-(tetrahydro-furan-3-yl)-indolizine-1-carboxylic Acid (3,3-difluoro-cyclohexyl methyl)-amide], the IC50 in assay [1] lay in the range of 10 to 100 nM; in assay [2] it was 101 to 500 nM.
The matching figures for `O=C(NCC1CCC(F)(F)CC1)c1cc(C2CCC2)n2cccc(Cl)c12` [Compound 5, 8-chloro-3-cyclobutyl-N-((4,4-difluorocyclohexyl)methyl)indolizine-1-carboxamide]: 10 to 100 nM and 101 to 500 nM.
In the same order, the values of `O=C(NC[C@@]1(O)CCCC(F)(F)C1)c1cc(C2CCOC2)n2cccc(Cl)c12` (stereo partly drawn) [Compound 66, 8-chloro-N—(((R)-3,3-difluoro-1-hydroxycyclohexyl)methyl)-3-(tetrahydrofuran-3-yl)indolizine-1-carboxamide] are 10 to 100 nM and 101 to 500 nM.
The matching figures for `COCCc1cc(C(=O)NC[C@]2(O)CCCC(F)(F)C2)c2c(Cl)cccn12` [Compound 64, 8-Chloro-3-(2-methoxy-ethyl)-indolizine-1-carboxylic Acid ((S)-3,3-difluoro-1-hydroxy-cyclohexylmethyl)-amide]: 10 to 100 nM and 101 to 500 nM.
For the compound `O=C(NCC1CCCCC1)c1cc(CCO)n2cccc(Cl)c12` [Compound 15, 8-chloro-N-(cyclohexylmethyl)-3-(2-hydroxyethyl)indolizine-1-carboxamide], the IC50 in assay [1] and in assay [2] was 101 to 500 nM throughout.
With `O=C(NCC1(O)CCCC(F)(F)C1)c1cc(C2CCOC2)n2cccc(Cl)c12` (stereo not shown) [Compound 65, 8-Chloro-3-(tetrahydro-furan-3-yl)-indolizine-1-carboxylic Acid (3,3-difluoro-1-hydroxycyclohexyl methyl)-amide], the IC50 in assay [1] and in assay [2] was 10 to 100 nM each time.
As to `CC1CC(CNC(=O)c2cc(CCO)n3cccc(Cl)c23)CC(F)(F)C1` (stereo not shown) [Compound 36, 8-chloro-N-((3,3-difluoro-5-methylcyclohexyl)methyl)-3-(2-hydroxyethyl)indolizine-1-carboxamide], the IC50 in assay [1] and in assay [2] was 10 to 100 nM each time.
Regarding `O=C(NCC1CCC(F)(F)CC1)c1cc(I)n2cccc(Cl)c12` [Compound 9], the IC50 in assay [1] and in assay [2] was 101 to 500 nM throughout.
In the case of `O=C(NCC1CCCCCC1)c1cc(CCO)n2cccc(Cl)c12` [Compound 6, 8-chloro-N-(cycloheptylmethyl)-3-(2-hydroxyethyl)indolizine-1-Carboxamide], the IC50 in assay [1] and in assay [2] was 10 to 100 nM each time.
Turning to `COCCc1cc(C(=O)NCC2CCCC(F)(F)C2)c2c(Cl)cccn12` (stereo not shown) [Compound 31, 8-chloro-N-((3,3-difluorocyclohexyl)methyl)-3-(2-methoxyethyl)indolizine-1-carboxamide], the IC50 in assay [1] and in assay [2] was 10 to 100 nM each time.
`O=C(NCC1(O)CCCC(F)(F)C1)c1cc(C2CCCO2)n2cccc(Cl)c12` (stereo not shown) [Compound 54, 8-Chloro-3-(tetrahydro-furan-2-yl)-indolizine-1-carboxylic Acid (3,3-difluoro-1-hydroxycyclohexyl methyl)-amide]: the IC50 was < 10 nM in assay [1] and 10 to 100 nM in assay [2].
In the same order, the values of `O=C(NCC1(O)CCC(F)(F)CC1)c1cc(C2CCC2)n2cccc(Cl)c12` [Compound 12, 8-chloro-3-cyclobutyl-N-((4,4-difluoro-1-hydroxycyclohexyl)methyl) indolizine-1-carboxamide] are 10 to 100 nM and 101 to 500 nM.
